Measured values as given in patent US11478471B2, “Methods and compositions for treating diabetes, metabolic syndrome and other conditions” (priority 2005, dated 2022).
≈ marks a conversion by molar mass, not a printed value. Where two headings read alike, the source gives them in different places.

Assays:
[1] = Toxicokinetics in the 28 day dog study of DIO-902 (with racemic ketoconazole group a); settings: male, beagle, plasma, po, dogs; for concentration at 0 h / concentration at 1 h / concentration at 2 h / concentration at 4 h / concentration at 8 h / concentration at 12 h: Drug concentration in plasma; for Tmax: Tmax Range; for AUC(0-t): AUC(0-12);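 on all read-outs here: beagle dogs dosed orally once daily within a 28-day GLP study, 3 animals per sex per group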
Candida glabrata = test: Antifungal MIC; type: cell-based; settings: Nakaseomyces glabratus, read-out: MIC
Candida kefyr = test: Antifungal MIC; type: cell-based; settings: Kluyveromyces marxianus, DSM11954; DSM strain 11954, 48 h
[2] = 28 day GLP toxicity study in dogs; settings: 28 days
cholesterol levels = test: Cholesterol levels in rats after oral dosing; type: in vivo, Sprague Dawley rats; settings: single oral 200 mg/kg
Description: (§1) The rats were maintained as described above; the drugs were suspended in olive oil, and each rat was dosed once via gastric tube to achieve a dose of 200 mg/kg. All of the rats were dosed at a specific time so that all terminations occurred between 6 and 7 pm. […] Following sacrifice, plasma was prepared, and the concentration of corticosterone in the plasma was determined by ELISA. In the same plasma samples, total cholesterol levels were also determined.

Saccharomyces cerevisiae = test: Antifungal MIC; type: cell-based; settings: DSM01333, DSM strain 01333, 48 h
Cryptococcus neoformans = test: Antifungal MIC; type: cell-based
plasma corticosterone = test: Plasma corticosterone in rats after oral dosing (ELISA); type: in vivo, Sprague Dawley rats; settings: for Corticosteroid Levels (mean ± SEM): 4 h after gavage
Description: To generate the results shown in FIG. 1, five groups (eight per group) of rats were used. The rats were maintained on a 14/10 hour light/dark cycle and allowed free access to food and water. Each rat was dosed (200 mg drug/kg body weight) via a gastric tube. […] All of the rats were dosed between 2.00 and 3.00 pm and were sacrificed four hours later (between 6.00 and 7.00 pm). Plasma was prepared and the concentration of corticosterone determined by an enzyme linked immuno assay (ELISA). In rats, the predominant active glucocorticoid is corticosterone; in humans, the predominant active glucucorticoid is the closely related molecule cortisol.
The rats were maintained and dosed as described above. Plasma was prepared and the concentration of corticosterone in the plasma determined by ELISA.
as §1
In the Table, corticosterone levels (mean±SEM; ng/mL) were determined four hours after oral gavage of the indicated drug (N=10/group). There was a single control group (dosed with vehicle).
Corticosterone levels (mean±SEM; ng/mL) were determined at the indicated times after oral gavage of the indicated drug at 200 mg/kg. […] The means of the vehicle treated groups are used as the time zero control point.

[3] = 2 mg/kg, 2 mg/kg oral, day 28, M
[4] = 6.5 mg/kg, 6.5 mg/kg oral, day 28, M
[5] = 6.5 mg/kg, 6.5 mg/kg oral, day 1, M
[6] = 20 mg/kg, 20 mg/kg oral, day 1, M
[7] = 20 mg/kg, 20 mg/kg oral, day 28, M

## CC(=O)N1CCN(c2ccc(OC[C@@H]3CO[C@@](Cn4ccnc4)(c4ccc(Cl)cc4Cl)O3)cc2)CC1 [DIO-902, 2S,4R cis-1-acetyl-4-[4-[[2-(2,4-dichlorophenyl)-2-(1H-imidazol-1-ylmethyl)-1,3-dioxolan-4-yl]methoxyl]phenyl]piperazine]
[1]; [3]
  concentration at 0 h: < 250 ng/mL
  concentration at 1 h: 660 ng/mL
  concentration at 2 h: 540 ng/mL
  concentration at 4 h: 380 ng/mL
  concentration at 8 h: < 250 ng/mL
  concentration at 12 h: < 250 ng/mL
  Tmax: 1 to 4 h
[1]; 2 mg/kg, 2 mg/kg oral, day 1, M
  Tmax: 1 to 2 h
[1]; 6.5 mg/kg, 6.5 mg/kg oral, day 1, M, n = 2
  AUC(0-t): 12200 ng·h/mL
[1]; [4]
  AUC(0-t): 14600 ng·h/mL
  Cmax: 2010 ng/mL
  concentration at 0 h: < 250 ng/mL
  concentration at 1 h: 1170 ng/mL
  concentration at 2 h: 1390 ng/mL
  concentration at 4 h: 1540 ng/mL
  concentration at 8 h: 1330 ng/mL
  concentration at 12 h: 880 ng/mL
  Tmax: 1 to 8 h
[1]; [5]
  Cmax: 2000 ng/mL
  concentration at 0 h: < 250 ng/mL
  concentration at 1 h: 1190 ng/mL
  concentration at 2 h: 1620 ng/mL
  concentration at 4 h: 1250 ng/mL
  concentration at 8 h: 410 ng/mL
  concentration at 12 h: 400 ng/mL
  Tmax: 1 to 4 h
[1]; [6]
  AUC(0-t): 60600 ng·h/mL
  Cmax: 9380 ng/mL
  concentration at 0 h: < 250 ng/mL
  concentration at 1 h: 7050 ng/mL
  concentration at 2 h: 8300 ng/mL
  concentration at 4 h: 6150 ng/mL
  concentration at 8 h: 2920 ng/mL
  concentration at 12 h: 6740 ng/mL
  Tmax: 1 to 4 h
[1]; [7]
  AUC(0-t): 80000 ng·h/mL
  Cmax: 9940 ng/mL
  concentration at 0 h: 1190 ng/mL
  concentration at 1 h: 9130 ng/mL
  concentration at 2 h: 9780 ng/mL
  concentration at 4 h: 8170 ng/mL
  concentration at 8 h: 5860 ng/mL
  concentration at 12 h: 4250 ng/mL
  Tmax: 2 to 4 h
Candida glabrata; DSM11226, DSM strain 11226, 48 h
  MIC: 0.5 µg/mL (≈ 0.941 µM)
Candida glabrata; DSM11950, DSM strain 11950, 48 h
  MIC: 0.25 µg/mL (≈ 0.47 µM)
Candida kefyr
  MIC: 0.03 µg/mL (≈ 0.0565 µM)
[2]; dogs, 20 mg/kg/day
  QTc: no obvious QTc prolongation
  food eaten less than placebo control group: 25-35%
[2]; dogs, 20 mg/kg/day, females (placebo 0.9 kg)
  body weight gain: 0.14 kg
[2]; dogs, 20 mg/kg/day, males (placebo 1.1 kg)
  body weight gain: 0.25 kg
[2]; dogs, 2, 6.5, 20 mg/kg/day
  change in serum chemistry measures: reduction in cholesterol
  hematology: no hematological changes noted
  ophthalmological and electrocardiographic parameters: no measurable effects
[2]; dogs, any dose
  microscopic findings: no remarkable microscopic findings
Cholesterol levels; 4 h
  Cholesterol Levels (mean ± SEM): 69.6 ± 1.9 mg/dL
Cholesterol levels; 8 h
  Cholesterol Levels (mean ± SEM): 73.5 ± 3.1 mg/dL
Cholesterol levels; 12 h
  Cholesterol Levels (mean ± SEM): 77.3 ± 3.9 mg/dL
Cholesterol levels; 16 h
  Cholesterol Levels (mean ± SEM): 61.9 ± 3.1 mg/dL
Cholesterol levels; 20 h
  Cholesterol Levels (mean ± SEM): 58 ± 1.2 mg/dL
Cholesterol levels; 24 h
  Cholesterol Levels (mean ± SEM): 61.9 ± 3.1 mg/dL
Saccharomyces cerevisiae
  MIC: 0.25 µg/mL (≈ 0.47 µM)
Cryptococcus neoformans; DSM11959, DSM strain 11959, 48 h
  MIC: 0.03 µg/mL (≈ 0.0565 µM)
Cryptococcus neoformans; DSM11960, DSM strain 11960, 48 h
  MIC: 0.125 µg/mL (≈ 0.235 µM)
Plasma corticosterone; single oral 50 mg/kg
  Corticosteroid Levels (mean ± SEM): 186 ± 14.9 ng/mL
Plasma corticosterone; single oral 100 mg/kg
  Corticosteroid Levels (mean ± SEM): 139 ± 10.9 ng/mL
Plasma corticosterone; single oral 200 mg/kg, 4 h
  Corticosteroid Levels (mean ± SEM), time course: 98 ± 10 ng/mL
Plasma corticosterone; single oral 200 mg/kg
  Corticosteroid Levels (mean ± SEM): 100 ± 8.6 ng/mL
Plasma corticosterone; single oral 200 mg/kg, 8 h
  Corticosteroid Levels (mean ± SEM), time course: 116 ± 13 ng/mL
Plasma corticosterone; single oral 200 mg/kg, 12 h
  Corticosteroid Levels (mean ± SEM), time course: 113 ± 8 ng/mL
Plasma corticosterone; single oral 200 mg/kg, 16 h
  Corticosteroid Levels (mean ± SEM), time course: 133 ± 17 ng/mL
Plasma corticosterone; single oral 200 mg/kg, 20 h
  Corticosteroid Levels (mean ± SEM), time course: 136 ± 12 ng/mL
Plasma corticosterone; single oral 200 mg/kg, 24 h
  Corticosteroid Levels (mean ± SEM), time course: 103 ± 14 ng/mL
Plasma corticosterone; single oral 400 mg/kg
  Corticosteroid Levels (mean ± SEM): 84 ± 11.6 ng/mL
Plasma corticosterone; single oral 600 mg/kg
  Corticosteroid Levels (mean ± SEM): 80 ± 7.8 ng/mL
